Reference: patent US8710091B2, “Imidazolidine-2,4-dione derivatives, and use thereof as a cancer drug” (Ipsen Pharma S.A.S., priority 2009, dated 2014)

What was measured:
Type in all cases: cell-based
androgen receptor = target: T1, androgen receptor (Homo sapiens, UniProt P10275, T878A); assay: Measurement of the disappearance of the androgen receptor (Western blot, LNCaP cells); conditions: 72 hours after treatment
T1 construct: The LNCaP cell type (ATCC, 1740) originating from a prostate carcinoma expressing the androgen receptor; host or cells: LNCaP
T1 sequence (P10275 1-920 T878A): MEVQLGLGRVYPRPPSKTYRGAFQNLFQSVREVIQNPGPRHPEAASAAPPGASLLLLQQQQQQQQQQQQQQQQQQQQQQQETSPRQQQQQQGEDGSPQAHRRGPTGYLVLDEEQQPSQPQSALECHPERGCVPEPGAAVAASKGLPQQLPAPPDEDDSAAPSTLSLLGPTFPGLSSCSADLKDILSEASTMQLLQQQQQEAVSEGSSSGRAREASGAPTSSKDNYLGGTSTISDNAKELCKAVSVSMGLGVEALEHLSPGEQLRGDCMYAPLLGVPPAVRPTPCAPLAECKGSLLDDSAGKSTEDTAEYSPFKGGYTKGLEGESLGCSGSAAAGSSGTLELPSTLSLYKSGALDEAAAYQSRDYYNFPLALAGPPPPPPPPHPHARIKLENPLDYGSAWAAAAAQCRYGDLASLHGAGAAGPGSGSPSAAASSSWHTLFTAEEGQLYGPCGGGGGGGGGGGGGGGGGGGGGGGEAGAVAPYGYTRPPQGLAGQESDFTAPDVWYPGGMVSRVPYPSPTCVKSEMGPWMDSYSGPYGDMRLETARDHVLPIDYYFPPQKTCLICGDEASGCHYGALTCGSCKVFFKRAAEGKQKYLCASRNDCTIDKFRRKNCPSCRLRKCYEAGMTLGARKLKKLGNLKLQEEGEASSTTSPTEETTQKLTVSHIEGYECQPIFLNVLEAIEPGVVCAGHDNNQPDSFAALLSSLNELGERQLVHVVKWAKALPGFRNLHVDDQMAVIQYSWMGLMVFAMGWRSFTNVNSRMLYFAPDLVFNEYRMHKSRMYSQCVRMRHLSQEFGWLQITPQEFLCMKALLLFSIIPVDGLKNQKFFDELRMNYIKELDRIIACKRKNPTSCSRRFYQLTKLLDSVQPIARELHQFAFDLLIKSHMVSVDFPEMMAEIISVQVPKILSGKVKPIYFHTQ
Protocol: The cells of the LNCaP line are seeded at a rate of 2.5 millions of cells per 10 cm Petri dish in RPMI, 10% of foetal calf serum, 2 mM of glutamine, 100 U/ml of penicillin, 0.1 mg/ml of streptomycin and 0.01M HEPES, 1 mM of sodium pyruvate, 40% of D-glucose. 4 days later, the cells are treated with the compound to be tested. 72 hours after the treatment the cells are lyzed in lysis buffer (50 mM Tris pH 7.4, 150 mM NaCl, 1 mM EDTA, 20 mM NaF, 100 mM Na2VO3, 0.5% of NP40, 1% of Triton X-100, 1 mM EGTA, Pefabloc, protease inhibitor cocktail 11836170001 RocheDiagnostics, Phosphatase inhibitor cocktail set II Calbiochem). The cells are then scrapped and the lysate transferred into QIAshredder tubes (cat No. 79656 Qiagen) for centrifugation at 13,000 rpm for 15 min at 4° C. The supernatant is transferred into QIAshredder tubes for a second centrifugation at 13,000 rpm for 5 min in order to completely eliminate the DNA filaments. […] The loading buffer (sample loading buffer 3×ref 7722 Cell signaling technology) with added 1% beta-mercaptoethanol and 50 mM DTT, is added to the samples which are then heated for 10 min at 90° C. The samples are deposited under a volume of 20 μl on NuPAGE 4-12% Bis-Tris gels (cat No. NP0322BOX, Invitrogen). The migration takes place in MOPS buffer (Invitrogen) and is carried out for 1 hour at 180V. […]

DU145 cells = assay: Antiproliferative activity on DU-145 in complete medium (WST-1); conditions: Homo sapiens, 144 h incubation, read-out: IC50 on the DU145 cells in culture (concentration inhibiting cell proliferation by 50%)
Protocol: The anti-proliferative activity of the compounds of the present invention is determined on DU-145 in complete medium.
Maintenance of the DU-145 line is carried out in DMEM, 10% of foetal calf serum, 2 mM of glutamine, 100 U/ml of penicillin, 0.1 mg/ml of streptomycin. • Seeding the plates: • The DU145 line is seeded at 400 or 800 cells/well in 90 μl of DMEM complete medium in 96-well plates (TPP). • Treatment of the cells: 24 h after the seeding, the cells are treated with 10 μl/well of compound diluted in the culture medium. Experiments showing the dose-effect of the compound are carried out on a scale of 1 nM to 100 μM. The concentrations used are the following: 1 nM/10/30/100/300/1000/3000/10,000/100,000 nM. The cells are incubated for 144 h at 37° C., 5% CO2. • Reading: On D6, 10 μL, of cell proliferation reagent WST-1 (Roche ref 1644807) is added to each well. After incubation for 2 to 4 hours at 37° C., 5% CO2, the absorbance at 450 nm is measured by spectrophotometry (Envision, Perkin Elmer). • Results: The experiments are carried out in duplicate and the best compounds are tested twice. […] 4. Measurement of the Disappearance of the Androgen Receptor

LNCaP cells = assay: Antiproliferative activity on LNCaP in medium without steroids (WST-1); conditions: 144 h, 1 nM to 100 μM
Protocol: The anti-proliferative activity of the compounds of the present invention is determined on LNCaP in medium without steroids.
The maintenance of the LNCaP line is carried out under the usual conditions in RPMI, 10% of foetal calf serum, 2 mM of glutamine, 100 U/ml of penicillin, 0.1 mg/ml of streptomycin and 0.01M HEPES, 1 mM sodium pyruvate, 40% of D-glucose.
For the study under conditions without steroids, 24 hours before the seeding the culture medium of the cells is eliminated. The cells are washed with PBS, then incubated in the presence of RPMI medium without phenol red, 10% of foetal calf serum without steroids (treatment with carbon), 2 mM of glutamine, 100 U/ml of penicillin, 0.1 mg/ml of streptomycin and 0.01M HEPES, 1 mM of sodium pyruvate, 40% of D-glucose. • Seeding the plates:
The LNCaP line is seeded at 20,000 cells/well in 90 μl of RPMI medium with 10% foetal calf serum without steroids in 96-well plates coated with poly-D-lysine (Biocoat, Costar). • Treatment of the cells: 24 h after seeding, the cells are treated with 10 μl/well of compound diluted in the culture medium. Experiments showing the dose-effect of the compound are carried out on a scale of 1 nM to 100 μM. The concentrations used are the following: 1 nM/10/30/100/300/1000/3000/10,000/100,000 nM. Testosterone (SIGMA T1500) is used as a reference and tested at the same concentrations. The cells are incubated for 144 h at 37° C., 5% CO2. • Reading: On D6, 10 μL of cell proliferation reagent WST-1 (Roche ref 1644807) is added to each well. After incubation for 2 to 4 hours at 37° C., 5% CO2, the absorbance at 450 nm is measured by spectrophotometry (Envision, Perkin Elmer). • Results: The experiments are carried out in duplicate and the best compounds are tested twice. […] 3. Antiproliferative Activity on DU-145 in Complete Medium: […]

CC(=O)Nc1ccc(N2C(=O)N(CCCCCCCCC[S+]([O-])CCCC(F)(F)C(F)(F)F)C(C)(C)C2=O)cc1C(F)(F)F (centres unmarked) [Example 18, N-[4-(4,4-dimethyl-2,5-dioxo-3-{9-[(4,4,5,5,5-pentafluoropentyl)sulphinyl]-nonyl}imidazolidin-1-yl)-2-(trifluoromethyl)phenyl]acetamide]
effect on the protein expression of the androgen receptor (FIGS. 2-4) (androgen receptor): reduction in the protein expression of the androgen receptor
IC50 (DU145 cells): > 10 µM
effect on the cell proliferation of LNCaP cultured in medium without steroids (FIG. 1) (LNCaP cells): anti-proliferative activity on the LNCaP cells without an agonist effect

CN(C)CC(=O)Nc1ccc(N2C(=O)N(CCCCCCCCC[S+]([O-])CCCC(F)(F)C(F)(F)F)C(C)(C)C2=O)cc1C(F)(F)F (centres unmarked) [Example 43a, N-[4-(4,4-dimethyl-2,5-dioxo-3-{9-[(4,4,5,5,5-pentafluoropentyl)sulphinyl]nonyl}imidazolidin-1-yl)-2-(trifluoromethyl)phenyl]-N^2,N^2-dimethylglycinamide]
effect on the protein expression of the androgen receptor (FIGS. 2-4) (androgen receptor): reduction in the protein expression of the androgen receptor
effect on the cell proliferation of LNCaP cultured in medium without steroids (FIG. 1) (LNCaP cells): anti-proliferative activity on the LNCaP cells without an agonist effect
